According to patent US10718756B2, “Mitochondrial apoptotic sensor” (The Regents of the University of California, priority 2016, dated 2020):

Assays:
[1] = system: isolated mitochondria (HeLa and RS4;11 cells); test: Graphene sensor measurement of extra-mitochondrial buffer pH of tethered isolated mitochondria; parameters: species or system mammalian
Source text: Here, is presented an electronic method to detect extra-mitochondrial pH of isolated mitochondria, based on tethering the mitochondria to one-atom thin graphene. The mitochondria are tethered via graphene bound antibodies which recognize the mitochondrial outer membrane protein, TOM20. Graphene is an excellent conductor and changes in the pH surrounding the mitochondria can change the graphene conductance and be detected electrically. Being optically transparent, the graphene layer also permits optical interrogation of the mitochondria concurrent with analysis of ionic changes.
An isolation buffer containing 225 mM mannitol, 75 mM sucrose, 0.5 mM EGTA, 20 mM HEPES, 0.5% (w/v) BSA, 1× protease inhibitor, pH 7.2 with 1 M KOH was used. […]
After mitochondria isolation, about 6 μg of mitochondrial protein of isolated mitochondria was loaded to a graphene device and incubated for 15 min at room temperature. […] The electrical measurement of Ids versus time and the fluorescence time-lapse measurement of TMRE signal were collected. […] In contrast, fluorescence images were taken once every 5 s for the experiments with CCCP or every 2 min for the experiments with BIM-BH3. […]
Control experiments were carried out in a similar manner with the only difference being the lack of isolated mitochondria. Software was used to analyze all electrical data and the fluorescence data that were exported from ImageJ software. […]

[2] = system: isolated mitochondria (HeLa and RS4;11 cells); test: TMRE fluorescence measurement of inner membrane potential (ΔΨm) of tethered isolated mitochondria; parameters: species or system mammalian; conditions: TMRE signal
Description: Before isolation, the confluent cells were stained with 100 nM MITOTRACKER™ Green FM and 40 nM TMRE for 1 hour. Subsequent isolation steps used solutions with 40 nM TMRE because TMRE is a potentiometric dye, which fluctuates in and out of the mitochondria depending on their inner membrane potential. 40 nM was determined as the optimal concentration. Using an inverted microscope with two LED excitation sources (490 nm & 565 nm the red and green fluorescence signals from the MITOTRACKER™ and TMRE were visualized with 20× objective at 200 μm×300 μm, exposure time one second. To process and analyze the images, ImageJ software was used. For the entire field of view analysis, fluorescence intensity was measured from the field of view. In contrast, for single mitochondrion analysis, regions of interest enclosing the mitochondria were defined and three more identical copies of that region of interest were used to define the background noise. Fluorescence signal of the mitochondria was assigned as the measured signal subtracting the noise average. […] The electrical measurement of Ids versus time and the fluorescence time-lapse measurement of TMRE signal were collected. […] In contrast, fluorescence images were taken once every 5 s for the experiments with CCCP or every 2 min for the experiments with BIM-BH3. […]

[3] = exogenous agent, after BIM-BH3 induced MOMP

Row | Compound | buffer acidification after BIM-BH3 induced MOMP [1, 3] | ΔΨm after BIM-BH3 induced MOMP [2, 3] | buffer pH (pHbuffer) ([1]; agent added to mitochondria on graphene device in KCl buffer with 5 mM succinate, 2 μM rotenone) | ΔΨm ([2]; agent added to mitochondria on graphene device in KCl buffer)
1 | cytochrome c [cytc] | blocks buffer acidification | rescues | – | –
2 | N#CC(C#N)=NNc1cccc(Cl)c1 [CCCP] | – | – | increase | decrease
